Assay results taken from US20260224547A1, “COMPOSITIONS COMPRISING ANATABINE AND USES THEREOF” (Philip Morris Products S.A., priority 2021, published 2026).

Test system: HEK-293, SH-SY5Y, primary human keratinocytes, THP-1 differentiated with PMA
Experiment: Transcriptomics (microarray) after anatabine treatment of 4 cell systems
Format: cell-based
Conditions: for Fold Change TXNRD1: gene TXNRD1; for Fold Change ZBTB21: gene ZBTB21; for Fold Change ZFAND2A: gene ZFAND2A
Method: To investigate the signalling pathways triggered by anatabine, 4 cell systems (HEK-293, SH-SY5Y, primary human keratinocytes, THP-1 differentiated with PMA) were treated with 4 concentrations of anatabine (100, 200, 300, 400 μM) for 6 hours, after which transcriptomics measurements were performed.
HEK-293 is a human embryonic kidney cell line devoid of nicotinic receptors. It can be relatively easily transfected and therefore used as a tool to express various subtypes of nicotinic receptors or reporter genes such as NRF2-driven luciferase, which were also used in this study. HEK-293 were seeded in a cell culture medium consisting of EMEM, 10% FBS, 1% NEAA, 1% Sodium Pyruvate and 1% PenStrep. 60,000 cells were seeded per well of a 96-well plate.
SH-SY5Y is a human bone marrow neuroblastoma cell line that has been used by researchers to investigate the potential anti-inflammatory effect of anatabine. SH-SY5Y were seeded in a cell culture medium consisting of 50% EMEM and 50% Ham's F12 nutrient and including 10% FBS, 1% PenStrep and 1% L-glutamine. 15,000 cells were seeded per well of a 96-well plate.
Primary human keratinocytes have been included as a relevant cell system for skin. The batch of keratinocytes was selected in order to have healthy, non-smoker, 20-60 years old, Caucasian donors. The keratinocytes were seeded in a cell culture medium consisting of KGM-Gold Keratinocyte Growth Medium. 17,500 cells were seeded per well of a 96-well plate.
The human leukaemia-derived monocytic cell line THP-1, is the most widely used in vitro model for primary human macrophage investigations. THP-1 cells were seeded in a cell culture medium consisting of RPMI, 10% FBS and 1% PenStrep and in the presence of 40 ng/ml phorbol 12-myristate 13-acetate (PMA). 100,000 cells were seeded per well of a 96-well plate, having a total volume of […] per well. 48 hours later the medium was changed to the same culture medium but without PMA, and the culture was left to rest for 24 h before treatment.
All four cell systems were seeded in 96 well plates at a total volume of 190 μl per well to allow for a 20× compound stimulation with a volume of 10 μL. 24 hours after seeding—or in the case of THP-1, 24 h after changing to non-PMA medium—four cell systems were stimulated with anatabine (prepared at 20× the corresponding target concentration) to obtain a final molar concentration of 100, 200, 300, 400 μM anatabine.
In order to generate the transcriptomics data, the four cell systems were exposed to various concentrations of anatabine (100, 200, 300, 400 μM) for 6 hours. The transcriptome of the cells was analysed by a microarray-based analysis.
The cells were lysed using RLT BUFFER (Qiagen Hilden, Germany) for all cell types except the keratinocytes which were lysed with QIAZOL LYSIS REAGENT (Qiagen). RNA isolation was performed with RNEASY MICRO KIT (Qiagen). RNA quantification was assessed with a NANODROP 1000 (ThermoFisher Waltham, MA, USA) and quality of the total RNA was verified acquiring a profile with a 2100 BIOANALYZER (Agilent Technologies, Santa Clara, CA, USA), requiring an RIN number greater than 6.0. 50 ng of total RNA were processed as described in the TECAN/NUGEN OVATION RNA AMPLIFICATION SYSTEM V2 (Tecan Mannedorf, Switzerland). Human Genome U133 Plus 2.0 array were used for hybridization on a THERMOFISHER OVEN 645, washed on THERMOFISHER GENECHIP™ FLUIDICS STATIONS 450DX (protocol FS450-0004) and scanned on a THERMOFISHER GENECHIP™ SCANNER 3000 7G.
Quality control check of all chips was done with the BIOCONDUCTOR affyPLM R package version 1.64. Following quality control procedures, differential gene expression analysis was performed using the BIOCONDUCTOR LIMMA R package version 3.44.3. Pairwise comparisons at the gene level, called systems response profiles (SRP), were computed by comparing each concentration-treatment with its respective vehicle control. […]

[1] = cell system THP1, anatabine 200 μM
[2] = cell system THP1, anatabine 300 μM
[3] = cell system THP1, anatabine 400 μM
[4] = cell system HEK293, anatabine 100 μM
[5] = cell system HEK293, anatabine 200 μM
[6] = cell system HEK293, anatabine 300 μM
[7] = cell system HEK293, anatabine 400 μM
[8] = cell system KEAT, anatabine 100 μM
[9] = cell system KEAT, anatabine 200 μM
[10] = cell system KEAT, anatabine 300 μM
[11] = cell system KEAT, anatabine 400 μM
[12] = cell system SHSY5Y, anatabine 100 μM
[13] = cell system SHSY5Y, anatabine 200 μM
[14] = cell system SHSY5Y, anatabine 300 μM
[15] = cell system SHSY5Y, anatabine 400 μM
[16] = cell system THP1, anatabine 100 μM

## C1=CCC(c2cccnc2)NC1 (racemic) [anatabine, 1,2,3,6-Tetrahydro-2,3′-bipyridine]
G0S2 gene, SHSY5Y, anatabine 200 μM
  Fold Change: −0.07408
G0S2 gene, SHSY5Y, anatabine 300 μM
  Fold Change: −0.1621
G0S2 gene, SHSY5Y, anatabine 400 μM
  Fold Change: −0.6623
G0S2 gene, THP1, anatabine 100 μM
  Fold Change: −0.1613
G0S2 gene, THP1, anatabine 200 μM
  Fold Change: −0.07473
G0S2 gene, THP1, anatabine 300 μM
  Fold Change: −0.2674
G0S2 gene, THP1, anatabine 400 μM
  Fold Change: −0.3675
GCLM gene, HEK293, anatabine 100 μM
  Fold Change: 0.1086
GCLM gene, HEK293, anatabine 200 μM
  Fold Change: 0.5976
GCLM gene, HEK293, anatabine 300 μM
  Fold Change: 0.7652
GCLM gene, HEK293, anatabine 400 μM
  Fold Change: 1.165
GCLM gene, KEAT, anatabine 100 μM
  Fold Change: 0.5698
GCLM gene, KEAT, anatabine 200 μM
  Fold Change: 0.8549
GCLM gene, KEAT, anatabine 300 μM
  Fold Change: 1.582
GCLM gene, KEAT, anatabine 400 μM
  Fold Change: 1.567
GCLM gene, SHSY5Y, anatabine 100 μM
  Fold Change: 0.3907
GCLM gene, SHSY5Y, anatabine 200 μM
  Fold Change: 0.7053
GCLM gene, SHSY5Y, anatabine 300 μM
  Fold Change: 1.629
GCLM gene, SHSY5Y, anatabine 400 μM
  Fold Change: 2.292
GCLM gene, THP1, anatabine 100 μM
  Fold Change: 0.2992
GCLM gene, THP1, anatabine 200 μM
  Fold Change: 0.7816
GCLM gene, THP1, anatabine 300 μM
  Fold Change: 1.645
GCLM gene, THP1, anatabine 400 μM
  Fold Change: 2.36
HMOX1 gene, HEK293, anatabine 100 μM
  Fold Change: 0.7745
HMOX1 gene, HEK293, anatabine 200 μM
  Fold Change: 1.877
HMOX1 gene, HEK293, anatabine 300 μM
  Fold Change: 2.27
HMOX1 gene, HEK293, anatabine 400 μM
  Fold Change: 3.142
HMOX1 gene, KEAT, anatabine 100 μM
  Fold Change: 3.914
HMOX1 gene, KEAT, anatabine 200 μM
  Fold Change: 4.283
HMOX1 gene, KEAT, anatabine 300 μM
  Fold Change: 5.733
HMOX1 gene, KEAT, anatabine 400 μM
  Fold Change: 5.633
HMOX1 gene, SHSY5Y, anatabine 100 μM
  Fold Change: 0.8699
Four cell lines, 100, 200, 300, 400 μM for 6 hours
  NRF2 target genes (HMOX1, GCLM, NQO1, TXNRD1) mRNA: dose-dependent increase
[1]
  Fold Change TXNRD1: 0.4137
  Fold Change ZBTB21: 0.2576
  Fold Change ZFAND2A: 0.2497
[2]
  Fold Change TXNRD1: 0.8364
  Fold Change ZBTB21: 0.3746
  Fold Change ZFAND2A: 0.5677
[3]
  Fold Change TXNRD1: 1.246
  Fold Change ZBTB21: 0.5865
  Fold Change ZFAND2A: 1.236
[4]
  Fold Change ZBTB21: 0.1286
  Fold Change ZFAND2A: 0.1376
[5]
  Fold Change ZBTB21: 0.3704
  Fold Change ZFAND2A: 0.3375
[6]
  Fold Change ZBTB21: 0.3353
  Fold Change ZFAND2A: 0.4979
[7]
  Fold Change ZBTB21: 0.6783
  Fold Change ZFAND2A: 0.7014
[8]
  Fold Change ZBTB21: 0.4558
  Fold Change ZFAND2A: 0.2592
[9]
  Fold Change ZBTB21: 0.5643
  Fold Change ZFAND2A: 0.4658
[10]
  Fold Change ZBTB21: 0.9994
  Fold Change ZFAND2A: 3.354
[11]
  Fold Change ZBTB21: 0.8602
  Fold Change ZFAND2A: 1.766
[12]
  Fold Change ZBTB21: 0.1782
  Fold Change ZFAND2A: 0.09166
[13]
  Fold Change ZBTB21: 0.5134
  Fold Change ZFAND2A: 0.3919
[14]
  Fold Change ZBTB21: 0.6287
  Fold Change ZFAND2A: 0.5328
[15]
  Fold Change ZBTB21: 0.9685
  Fold Change ZFAND2A: 1.066
[16]
  Fold Change ZBTB21: −0.01334
  Fold Change ZFAND2A: 0.1252
